Experimental data as given in article PMC8406298, “Discovery of Fungus-Specific Targets and Inhibitors Using Chemical Phenotyping of Pathogenic Spore Germination” (mBio, 2021).
“And” between values parts separate entries of the source, which are not always exact repeats. Equal entries are not always repeated. Where two headings read alike, the source gives them in different places.

Experiments:
Cryptococcus spores [1] = test: Quantitative germination assay (QGA), automated microscopy of spore germination; assay type: cell-based, Cryptococcus neoformans serotype D (deneoformans); details: for germination inhibition phenotype (chemical phenotype) in QGA: at phenotypic concentration
Method: In this automated microscopy-based assay, germination progression of spores is monitored as a function of changes in cell morphology over time (spores are small and oval; yeast are large and circular). Individual spores in a population (∼1 × 10^4 per sample) are measured to determine size (area) and shape (aspect ratio) from the onset of germination, and the data are collected for each cell over the time of germination (Fig. 1A).
Germination assays were modified from those described by Barkal et al. to introduce automation, increase throughput, and refine assay consistency ([12]). Briefly, 384-well plates (Thermo Scientific 142762) were loaded with 10^5 spores per well, and at 0 h, synthetic medium plus 2% dextrose (SD medium) containing the compounds of interest was added to the sample (final volume of 40 μl). All compounds were tested initially at 80 μM; however, concentrations were changed on a case-by-case basis for subsequent experiments. All assays and controls were performed with a final concentration of 0.8% DMSO (the compound solvent) unless specified otherwise. Spores were germinated at 30°C in a humidified chamber, and the same ∼5 × 10^3 cells were monitored every 2 h for 16 h. Imaging was performed on a Ti2 Nikon microscope, and each condition was visualized in a minimum of two individual wells with three fields of view acquired from each well. All images were analyzed as described previously based on cell shape and size using ImageJ. The population ratios of spores, intermediates, and yeast were determined. Error bars in plots are based on the variation among all fields of view acquired. Level of germination was determined by quantifying the decrease in the proportion of spores in a population, and rates were quantified by determining the change in this proportion over time. For all two-dimensional histograms, the x axis represents area from 0 μm^2 to 25 μm^2, and the y axis represents the aspect ratio from 0.4 to 1.
Cycloheximide (0.078 μM to 80 μM) (Dot Scientific, Inc. DSC81040-1), G418 (1.6 mM) (Fisher Scientific AAJ6267106), and puromycin (20 mM) (Dot Scientific, Inc. DSP33020-0.025) were tested with no DMSO (all were water soluble), whereas anisomycin (62.5 μM) (Sigma-Aldrich A9789-5MG) was tested in 2.5% DMSO.
Furcarbanil (80 μM) (Sigma-Aldrich T313122), rotenone (10 μM) (Fisher Scientific 501687383), and antimycin A (2.5 μM) (Santa Cruz Biotechnology, Inc. sc-202467A) were all tested in 0.8% DMSO, and TTFA (200 μM) (Sigma-Aldrich 88300-5G) was tested in 3% DMSO.

[2] = tested on: normal human dermal fibroblasts (NHDF) cells; test: Fibroblast cytotoxicity (CellTiter-Glo); assay type: cell-based; details: at concentrations as high as 80 μM; dose-response 0.5 to 80 μM
Outline: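 Normal human dermal fibroblasts, 1 × 10^3 per well, exposed to compounds at 10 μM for 72 h at 37°C. Viability read as ATP-dependent CellTiter-Glo luminescence. Dose-response runs titrated compounds from 80 μM to 0.5 μM in duplicate.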

[3] = tested on: Cryptococcus yeast (JEC21); test: Oxygen consumption rate experiments (Seahorse XFe96); assay type: cell-based, Cryptococcus neoformans serotype D (deneoformans); details: 10 μM inhibitor injected after 20 mM glucose
Method: Oxygen consumption experiments were performed on a Seahorse Biosciences XFe96 extracellular flux analyzer, and the assays were modified from those described by Lev et al. 2020 ([28]). Briefly, cartridges were hydrated overnight in Agilent Seahorse XF calibrant. JEC21 yeast were grown overnight in YPD, washed with double-distilled water (ddH2O) and resuspended to an OD600 of 0.08 in Seahorse XF Dulbecco’s modified Eagle medium (DMEM) at pH 7.4 (Agilent 103575-100). Cells (180 μl) were loaded into each well with the exception of blank wells, which were filled with XF DMEM. Each injection solution was 10× the final volume in XF DMEM. The assay was carried out at 30°C with injections occurring every 60 min. OCR was read every 6 min during each hour interval, with 3 min of mixing and 3 min of measuring. The following final concentrations were achieved after each injection: (a) 20 mM dextrose, (b) 10 μM chosen inhibitor (furcarbanil, B2, or B5) and 1% DMSO, (c) 50 μM rotenone, 50 μM antimycin A, and 1% DMSO, and (d) 100 mM 2-deoxy-D-glucose (2-DG; Sigma-Aldrich D8375-1G). Each condition was tested in triplicates.

[4] = tested on: Cryptococcus spores harboring CNK01510-NL fusion; test: Nanoluciferase germination screen (HTS); assay type: cell-based, Cryptococcus neoformans serotype D (deneoformans)
From the text: To identify potential inhibitors of spore germination, a nanoluciferase (NL)-based high-throughput screening (HTS) assay was developed, and compounds from three libraries of structurally diverse, drug-like small molecules (LifeChem 1 to 3) were screened (see Fig. S1 in the supplemental material). For the assay, a previously identified protein (CNK01510) was fused to the nanoluciferase protein (Promega) and introduced into its endogenous locus in the Cryptococcus genome ([14]). Strains harboring the integrated NL protein fusion were crossed under sexual development conditions to produce spores. Spores from the NL strains yielded very little NL enzyme activity; however, yeast from those strains produced a robust NL signal. Most importantly, the amount of NL signal correlated with the germination state. As spores germinated into yeast, the levels of NL signal increased, resulting in a robust signal over baseline at the end of germination (∼14-fold) (Fig. S1). […] Secondary screens were performed on these hits to determine effects on yeast replication, cytotoxicity against mammalian fibroblasts, and direct inhibition of the NL enzyme (see Data Set S1).
Screening of the LifeChem libraries (Life Chemicals) was carried out with the assistance of the University of Wisconsin—Madison (UW-Madison) small-molecule screening facility. All NL screening was performed as described previously ([7]). […]

Candida albicans = tested on: Candida albicans; parameters: method as in PMID 16876761; details: cited from earlier work
Cryptococcus spores [5] = tested on: Cryptococcus spores; parameters: method as in PMID 31570398; details: previous study; cited from earlier work

SMILES	phenotypic concentration (concentration showing the germination phenotype in QGA) (Cryptococcus spores [1])	germination inhibition phenotype (chemical phenotype) in QGA (Cryptococcus spores [1])	further results
Cc1cc(C(=O)N(CCc2cccs2)C2CC2)c(C)o1 [B2]	–	–	inhibition at 5 µM (Cryptococcus spores [1]; Cryptococcus): > 75%; cytotoxicity against fibroblasts [2]: ≤ 25%; effect on oxygen consumption rate (OCR) [3]: substantial decrease in OCR that was not recovered from
Cc1cc(C(=O)Nc2ccccc2)c(C)o1 [furcarbanil, reference compound]	80 µM	asynchrony	effect on oxygen consumption rate (OCR) [3]: initial substantial decrease in OCR followed by recovery
Cc1nc(NCc2ccccc2)c2ccsc2n1 [A5]	–	–	inhibition at 5 µM (Cryptococcus spores [1]; Cryptococcus): > 80%; cytotoxicity against fibroblasts [2]: < 20%
O=C(CCc1ccccc1Br)N1CCC(c2cccs2)CC1 [PubChem CID 71807060]	40 µM	asynchrony	–
C=C(C)[C@H]1Cc2c(ccc3c2O[C@@H]2COc4cc(OC)c(OC)cc4[C@@H]2C3=O)O1 [rotenone, reference compound]	10 µM	asynchrony	–
COc1ccc(/C=C/c2nc3ccccc3[nH]2)cc1 [PubChem CID 5769808]	20 µM	slow down	–
Cc1ccccc1OCCn1cnc2ccccc21 [PubChem CID 749608]	10 µM	slow down	–
CC(C)(C)c1ccc(-c2csc(N)n2)cc1 [PubChem CID 673711]	5 µM	bimodal	–
Cc1cc(C)c2sc(NN)nc2c1 [PubChem CID 2049855]	–	combination of the “morphological variability” and the “slow end” phenotypes	phenotypic concentration (concentration showing the germination phenotype in QGA) (Cryptococcus spores [1]; listed as G2): 20 µM and 40 µM
O=C(NCc1ccnc(-c2cccs2)c1)c1nc2ccccc2s1 [PubChem CID 91630328]	40 µM	asynchrony	–
CCc1ccccc1NC(=O)c1cc(C)oc1C [B1]	80 µM	–	–
O=C(CSCc1ccccc1)N1CCC(c2ccsc2)CC1 [PubChem CID 71786985]	80 µM	asynchrony	–
C/C=C/c1ccc(OCCn2cnc3ccccc32)c(OC)c1 [PubChem CID 5769972]	10 µM	slow down	–
C[C@@H]1C[C@@H]([C@H](O)CC2CC(=O)NC(=O)C2)C(=O)[C@@H](C)C1 [cycloheximide, reference compound]	–	slow-down	inhibition of germination (changes in size or shape) (Cryptococcus spores [1]; 10 µM): full inhibition of germination; IC50 (Cryptococcus spores [1]; Cryptococcus, 16 h, read-out: 50% inhibitory concentration (IC50) of spore germination): 1.7 µM; NL signal in germination screen [4]: low levels of NL signal
O=C(CC(=O)C(F)(F)F)c1cccs1 [TTFA, thenoyltrifluoroacetone, reference compound]	200 µM	asynchrony	effect on hyphal formation (Candida albicans): prevent hyphal formation
Cc1ccccc1OCCSCc1nc2ccccc2[nH]1 [PubChem CID 1589778]	80 µM	slow down	–
Nc1nc(COc2ccc3ccccc3c2)cs1 [PubChem CID 973573]	10 µM	asynchrony	–
O=C(CSCc1ccccc1)N1CCC(c2cccs2)CC1 [PubChem CID 71786876]	80 µM	asynchrony	–
O=C(NC1CCCC1)c1csc(Nc2ccccc2)n1 [PubChem CID 30860168]	10 µM	asynchrony	–
c1ccc(OCCCCSc2nc3ccccc3[nH]2)cc1 [PubChem CID 1653635]	80 µM	slow down	–
O=C(CCSc1ccccc1)N1CCC(c2cccs2)CC1 [PubChem CID 71786877]	80 µM	asynchrony	–
CCCCCC[C@H]1C(=O)O[C@H](C)[C@H](NC(=O)c2cccc(NC=O)c2O)C(=O)O[C@@H](C)[C@@H]1OC(=O)CC(C)C [antimycin A, reference compound]	2.5 µM	asynchrony	–
NNc1nc2cc3c(cc2s1)OCCO3 [PubChem CID 2771030]	–	–	germination inhibition phenotype in QGA (Cryptococcus spores [1]; at 2.5 µM): bimodal; germination inhibition phenotype in QGA (Cryptococcus spores [1]; at higher concentrations (5 µM)): combination phenotype of “bimodal” and “slow end”; phenotypic concentration (concentration showing the germination phenotype in QGA) (Cryptococcus spores [1]; listed as G3): 2.5 µM and 5 µM
Cc1cc(C(=O)N2CCC(Oc3ncccc3Cl)CC2)c(C)o1 [B5]	–	–	effect on oxygen consumption rate (OCR) [3]: small decrease in OCR that was not recovered from
CCCCSc1nc2ccc(C)cc2[nH]1 [PubChem CID 2129690]	80 µM	slow down	–
CN[C@@H]1[C@@H](O)[C@@H](O[C@@H]2[C@@H](O)[C@H](O[C@H]3O[C@H]([C@@H](C)O)[C@@H](O)[C@H](O)[C@H]3N)[C@@H](N)C[C@H]2N)OC[C@]1(C)O [Geneticin, reference compound]	–	slow-down	–
Clc1ccc(OCCSCc2nc3ccccc3[nH]2)cc1 [PubChem CID 1589789]	20 µM	slow down	–
CCN(CC)C(=S)SSC(=S)N(CC)CC [disulfiram]	–	–	germination inhibition phenotype in QGA (Cryptococcus spores [5]): slow-end
